Experimental findings from paper PMC10167348, “Structural mechanisms of TRPM7 activation and inhibition” (Nature Communications, 2023) are described below.

Each structure is given as a SMILES string. Like-named read-outs stand apart in the source and are kept apart here.

Holding throughout (assay type): cell-based
The target in one test is T1, wild-type TRPM7 (Mus musculus, UniProt Q923J1).
T1 construct: expressed in transfected cells; host or cells: HEK 293T
Nature of the test: Whole-cell patch-clamp recordings in HEK 293T cells. The following applies: amplitude at +80 mV. Here is the method:
(§1) Patch-clamp experiments were performed as reported previously, with a few modifications[69],[70]. HEK 293T cells grown in 35-mm dishes to ~60% confluence were transiently transfected with Trpm7 cDNAs in the pIRES2-EGFP vector (2 µg/dish). Patch-clamp experiments were conducted 18–22 h after transfection with cells displaying EGFP fluorescence. Whole-cell currents were recorded using an EPC10 patch-clamp amplifier and PatchMaster software (Version V2x69, Harvard Bioscience). Voltages were corrected for a liquid junction potential of 10 mV. Currents were elicited by voltage ramps from –100 mV to +100 mV over 50 ms acquired at 0.5 Hz. The inward and outward current amplitudes were measured at –80 mV and +80 mV and were normalized to the cell size as pA/pF. The capacitance was measured using the automated capacitance cancellation function of EPC10. The standard extracellular solution contained 140 mM NaCl, 2.8 mM KCl, 1 mM CaCl2, 2 mM MgCl2, 10 mM HEPES-NaOH, and 11 mM glucose (all from Sigma-Aldrich). Solutions were adjusted to pH 7.2 using an FE20 pH meter (Mettler Toledo) and to 290 mOsm using a Vapro 5520 osmometer (Wescor Inc). […] For the experiment with naltriben, the intracellular solution contained 120 mM Cs-glutamate, 8 mM NaCl, 10 mM Cs-EGTA, 1.5 mM MgCl2, and 10 mM HEPES-CsOH. The intracellular solution was also adjusted to pH 7.2 and 290 mOsm. Data are presented as the mean ± SEM Unless indicated otherwise, data were compared by unpaired t-test (GraphPad Prism 8.4.0). For multiple comparisons, ordinary one-way ANOVA (GraphPad Prism 8.4.0) was used. Significance was accepted at P ≤ 0.05.
For orientation: Patch clamp records ionic current or voltage across a cell membrane.

Another test has as its target T2, TRPM7-M991A (Mus musculus, UniProt Q923J1, M991A).
T2 construct: expressed in transfected cells; host or cells: HEK 293T
As to the kind of experiment: Aequorin-based Ca2+ influx assay, inhibition of TRPM7-mediated Ca2+ influx. Here is the method:
(§2) Measurements of [Ca^2+]i were performed as reported previously with several modifications[2],[52],[54]. HEK 293T cells (mycoplasma test negative, ATCC #CRL3216) were maintained at 37 °C and 5% CO2 in DMEM supplemented with 10% fetal calf serum, 100 µg/ml streptomycin and 100 U/ml penicillin (all from Thermo Fisher Scientific). Cells cultured in six-well plates (~60% confluence) were transfected with 2 µg/dish Trpm7 plasmid DNA and 0.1 µg/dish pG5A plasmid DNA encoding eGFP fused to Aequorea victoria aequorin, using Lipofectamine 2000 (Thermo Fisher Scientific). Twenty-four hours after transfection, the cells were washed with Mg^2+-free HEPES-buffered saline (Mg^2+-free HBS) containing 140 mM NaCl, 6 mM KCl, 0.5 mM CaCl2, 10 mM HEPES (pH 7.4) and 5 mM glucose, and mechanically resuspended in the Mg^2+-free HBS. For reconstitution of aequorin, cell suspensions were incubated with 5 µM coelenterazine (Biaffin GmbH) in the Mg^2+-free HBS for 30 min at room temperature. Cells were washed twice by centrifugation at 600 rpm for 5 min (Heraeus Pico 17 microcentrifuge, Thermo Fisher Scientific), resuspended in the Mg^2+-free HBS and aliquoted into 96-well plates (1 × 10^5 cells per well). Luminescence was detected at room temperature using a FLUOstar OPTIMA microplate reader (BMG LABTECH GmbH). To monitor the NS8593- and VER155008-induced inhibition of TRPM7-mediated Ca^2+ influx, the extracellular concentration of Ca^2+ was increased to 5 mM by injecting the CaCl2-containing Mg^2+-free HBS in the absence or presence of the inhibitors. […] To study activation by naltriben, TRPM7-transfected cells were exposed to Mg^2+-free HBS containing different concentrations of the agonist. The experiments were terminated by lysing cells with 0.1% (v/v) Triton X-100 in the Mg^2+-free HBS to record the total bioluminescence. The bioluminescence rates (counts/s) were analyzed at 1-s intervals and calibrated as [Ca^2+]i values using the following equation:1 p[Ca^2+]i=0.332588(−log(k))+5.5593 where k represents the rate of aequorin consumption, i.e., counts/s divided by the total number of counts.
(§3) To determine the IC50 values for NS8593 and VER155008 (EC50 for naltriben), the data were fitted with the following logistic equation:2 Ec=Emin+Emax+Emin/1+c^h/IC50^h where E(c) is the functional effect at the concentration c of the compound, Emin is the minimal effect, Emax is the maximal effect, IC50 (EC50) is the concentration of the compound that produces the half-maximal effect, and h is the Hill coefficient. Fitting of dose-response curves was performed using GraphPad Prism 8.4.0. Data are presented as the mean ± SEM.

In the next test the target is T3, TRPM7-N1098Q (Mus musculus, UniProt Q923J1, N1098Q).
T3 construct: expressed in transfected cells; host or cells: HEK 293T
T3 sequence (Q923J1 whole entry N1098Q): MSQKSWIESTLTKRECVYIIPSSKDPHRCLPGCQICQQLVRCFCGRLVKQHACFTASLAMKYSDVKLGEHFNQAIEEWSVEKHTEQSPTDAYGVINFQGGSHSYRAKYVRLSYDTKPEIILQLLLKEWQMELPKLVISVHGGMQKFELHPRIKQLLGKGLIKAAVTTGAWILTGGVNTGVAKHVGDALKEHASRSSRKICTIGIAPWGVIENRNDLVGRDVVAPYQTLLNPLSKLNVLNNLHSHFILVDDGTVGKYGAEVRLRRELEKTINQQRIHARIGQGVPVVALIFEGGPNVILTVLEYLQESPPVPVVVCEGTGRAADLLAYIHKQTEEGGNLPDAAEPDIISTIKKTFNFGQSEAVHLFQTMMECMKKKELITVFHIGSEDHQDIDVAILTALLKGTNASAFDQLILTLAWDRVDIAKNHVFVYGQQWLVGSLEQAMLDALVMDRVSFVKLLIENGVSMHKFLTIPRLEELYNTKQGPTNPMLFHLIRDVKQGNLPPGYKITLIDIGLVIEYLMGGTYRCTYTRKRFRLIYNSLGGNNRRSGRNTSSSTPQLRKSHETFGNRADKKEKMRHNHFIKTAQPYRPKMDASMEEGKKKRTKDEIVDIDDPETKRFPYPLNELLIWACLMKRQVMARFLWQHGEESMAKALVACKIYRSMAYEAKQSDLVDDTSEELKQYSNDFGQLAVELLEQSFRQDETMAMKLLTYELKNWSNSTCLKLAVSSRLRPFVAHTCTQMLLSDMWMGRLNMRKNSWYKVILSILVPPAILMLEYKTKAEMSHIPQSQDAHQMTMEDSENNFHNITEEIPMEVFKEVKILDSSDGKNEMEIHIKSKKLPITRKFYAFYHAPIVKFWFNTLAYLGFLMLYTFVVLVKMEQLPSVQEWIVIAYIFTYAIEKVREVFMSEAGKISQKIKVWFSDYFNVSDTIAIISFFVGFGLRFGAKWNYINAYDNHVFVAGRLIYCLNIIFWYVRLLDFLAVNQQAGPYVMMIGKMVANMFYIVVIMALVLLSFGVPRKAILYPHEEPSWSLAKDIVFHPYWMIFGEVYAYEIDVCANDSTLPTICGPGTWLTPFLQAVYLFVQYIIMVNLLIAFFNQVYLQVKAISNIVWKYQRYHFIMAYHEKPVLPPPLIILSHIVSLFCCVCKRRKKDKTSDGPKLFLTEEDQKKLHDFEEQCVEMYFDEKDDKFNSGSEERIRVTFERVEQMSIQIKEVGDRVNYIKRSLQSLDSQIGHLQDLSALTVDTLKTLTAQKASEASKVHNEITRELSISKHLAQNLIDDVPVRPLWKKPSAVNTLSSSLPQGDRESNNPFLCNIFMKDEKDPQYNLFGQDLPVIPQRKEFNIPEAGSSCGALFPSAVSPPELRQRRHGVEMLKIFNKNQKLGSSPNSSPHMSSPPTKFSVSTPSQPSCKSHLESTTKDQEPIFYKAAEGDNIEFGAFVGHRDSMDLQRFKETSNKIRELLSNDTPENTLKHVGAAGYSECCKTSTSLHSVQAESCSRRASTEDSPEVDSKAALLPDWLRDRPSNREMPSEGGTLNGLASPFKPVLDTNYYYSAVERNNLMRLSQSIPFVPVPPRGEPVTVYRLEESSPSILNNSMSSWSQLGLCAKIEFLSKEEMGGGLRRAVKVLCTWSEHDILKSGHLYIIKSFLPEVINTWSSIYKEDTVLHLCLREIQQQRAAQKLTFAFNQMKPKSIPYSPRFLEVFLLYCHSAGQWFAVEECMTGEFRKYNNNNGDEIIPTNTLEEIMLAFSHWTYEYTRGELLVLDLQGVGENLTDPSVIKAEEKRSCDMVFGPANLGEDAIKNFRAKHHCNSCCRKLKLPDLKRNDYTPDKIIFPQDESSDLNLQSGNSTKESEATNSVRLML
The description is as above. Here is the method: as §2, §3

For another test, the target named is T4, TRPM7 WT (Mus musculus, UniProt Q923J1).
T4 construct: expressed in transfected cells; host or cells: HEK 293T
T4 sequence (Q923J1 whole entry): as the sequence (Q923J1 whole entry N1098Q) above, with Q1098N counted along it
Described as above. As to the method: as §2, §3

The target of another test is T5, TRPM7-N752K (Mus musculus, UniProt Q923J1, N752K).
T5 construct: expressed in transfected cells; host or cells: HEK 293T
T5 sequence (Q923J1 whole entry N752K): as the sequence (Q923J1 whole entry N1098Q) above, with N752K, Q1098N counted along it
Nature of the test: Whole-cell patch-clamp recordings in HEK 293T cells. The note with it: 50 and 100 μM NTB. Here is the method:
as §1

Another test has as its target T6, TRPM7-L671A (Mus musculus, UniProt Q923J1, L671A).
T6 construct: expressed in transfected cells; host or cells: HEK 293T
Described as above. The note with it: 50 and 100 μM NTB. Here is the method: as §1

T2 sequence (Q923J1 whole entry M991A): as the sequence (Q923J1 whole entry N1098Q) above, with M991A, Q1098N counted along it
T1 sequence (Q923J1 whole entry): as the sequence (Q923J1 whole entry N1098Q) above, with Q1098N counted along it
T6 sequence (Q923J1 whole entry L671A): as the sequence (Q923J1 whole entry N1098Q) above, with L671A, Q1098N counted along it

The IC50 is the concentration that inhibits the measured activity by half. Consider `c1ccc2c(c1)CCC[C@H]2Nc1nc2ccccc2[nH]1` [NS8593], for which the “amplitude of TRPM7-mediated currents in the presence of inhibitor” value on wild-type TRPM7 (10 µM inhibitor, 450-s exposure) was “greatly reduced”. Moreover, the remaining activity at 0.7 µM on TRPM7-M991A (M991A in the presence of 10 µM VER155008, [NS8593] 0.7 µM, replicate values, read-out: TRPM7 activity, 100%) worked out at 77%; at TRPM7-N1098Q (N1097Q (so in the source), [NS8593] 0.7 µM, replicate values, read-out: TRPM7 activity, 100%), 87.7%. Besides, the remaining activity at 1 µM was 61.9% on TRPM7-M991A (M991A in the presence of 10 µM VER155008, [NS8593] 1.0 µM, replicate values, read-out: TRPM7 activity, 100%); 28.8% on TRPM7-M991A (M991A without VER155008, [NS8593] 1.0 µM, replicate values, read-out: TRPM7 activity, 100%); 82.4% at TRPM7-N1098Q (N1097Q (so in the source), [NS8593] 1.0 µM, replicate values, read-out: TRPM7 activity, 100%). Further, on TRPM7-M991A (M991A in the presence of 10 µM VER155008, [NS8593] 3.0 µM, replicate values, read-out: TRPM7 activity, 100%), the remaining activity at 3 µM stood at 17.1%. In addition, the remaining activity at 5 µM on TRPM7-M991A (M991A in the presence of 10 µM VER155008, [NS8593] 5.0 µM, replicate values, read-out: TRPM7 activity, 100%) came to 11.9%; on TRPM7-N1098Q (N1097Q (so in the source), [NS8593] 5.0 µM, replicate values, read-out: TRPM7 activity, 100%) it was 64.3%. Moreover, the Hill coefficient entry on TRPM7-M991A (M991A, antagonist, no added second inhibitor, mean ± SEM) is “–1.24 ± 0.15”; at TRPM7-M991A (M991A, in the presence of 10 µM VER155008, mean ± SEM) it was “–1.43 ± 0.11”; on TRPM7-N1098Q (N1098Q, antagonist, mean ± SEM) it was “–0.93 ± 0.20”; at TRPM7 WT (antagonist, mean ± SEM), “–1.73 ± 0.26”. Moreover, the IC50 on TRPM7-M991A (M991A, antagonist, no added second inhibitor, mean ± SEM, read-out: IC50) came out at 590 ± 50 nM; at TRPM7-N1098Q (N1098Q, antagonist, mean ± SEM) it was 20500 ± 10700 nM; against TRPM7 WT (antagonist, mean ± SEM), 910 ± 80 nM. The remaining activity at 0.3 µM on TRPM7-N1098Q (N1097Q (so in the source), [NS8593] 0.3 µM, replicate values, read-out: TRPM7 activity, 100%) was found to be 90.4%. The remaining activity at 0.5 µM at TRPM7-N1098Q (N1097Q (so in the source), [NS8593] 0.5 µM, replicate values, read-out: TRPM7 activity, 100%) turned out to be 95%. Further, the remaining activity at 7 µM stood at 59.4% on TRPM7-N1098Q (N1097Q (so in the source), [NS8593] 7.0 µM, replicate values, read-out: TRPM7 activity, 100%) and 0% at TRPM7 WT ([NS8593] 7.0 µM, replicate values, read-out: TRPM7 activity, 100%). Besides, on TRPM7-N1098Q (N1097Q (so in the source), [NS8593] 10.0 µM, replicate values, read-out: TRPM7 activity, 100%), the remaining activity at 10 µM worked out at 43.2%. Besides, the “TRPM7 activity, 100%” value on TRPM7-N1098Q (N1097Q (so in the source), [NS8593] 50.0 µM, replicate values) was 0.0%. The remaining activity at 50 µM at TRPM7-N1098Q (N1097Q (so in the source), [NS8593] 50.0 µM, replicate values, read-out: TRPM7 activity, 100%) turned out to be 0%; on TRPM7 WT ([NS8593] 50.0 µM, replicate values, read-out: TRPM7 activity, 100%), 0%. Moreover, at TRPM7 WT ([NS8593] 30.0 µM, replicate values, read-out: TRPM7 activity, 100%), the remaining activity at 30 µM is 0%.
As to `Oc1ccc2c3c1O[C@H]1c4oc5ccccc5c4C[C@@]4(O)[C@@H](C2)N(CC2CC2)CC[C@]314` [Naltriben, naltriben], the “sensitivity of TRPM7 currents to agonist, mutant vs WT” value at TRPM7-N752K and at TRPM7-L671A was “reduced sensitivity” in each case. The “whole-cell currents in the presence of agonist” value on wild-type TRPM7 (500 μM NTB, 170-s application) is given as “dramatically increased”.
